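Following 48 hours of exposure in 96-well plates, responses at five concentrations were used to interpolate endpoints linearly. At the GI50, growth is halved.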 The source made the active and inactive calls. Rule as the data show it: active = GI50 up to about 1.1 µM and inactive = higher.
Experiments:
Assay in all cases: NCI tumour cell line growth inhibition, 48 h
786-0 = tested on: 786-0
A498 = tested on: A498
A549 = tested on: A549
ACHN = tested on: ACHN
BT-549 = tested on: BT-549
CAKI-1 = tested on: CAKI-1
CCRF-CEM = tested on: CCRF-CEM
COLO 205 = tested on: COLO 205
DU-145 = tested on: DU-145
EKVX = tested on: EKVX
HCC 2998 = tested on: HCC 2998
HCT-116 = tested on: HCT-116
HCT-15 = tested on: HCT-15
HL-60 = tested on: HL-60
HOP-62 = tested on: HOP-62
HOP-92 = tested on: HOP-92
HT-29 = tested on: HT-29
Hs-578T = tested on: Hs-578T
IGROV-1 = tested on: IGROV-1
K562 = tested on: K562
KM12 = tested on: KM12
LOX IMVI = tested on: LOX IMVI
M14 = tested on: M14
MCF7 = tested on: MCF7
MDA-MB-231 = tested on: MDA-MB-231
MDA-MB-435 = tested on: MDA-MB-435
MDA-N = tested on: MDA-N
MOLT-4 = tested on: MOLT-4
NCI-H226 = tested on: NCI-H226
NCI-H23 = tested on: NCI-H23
NCI-H460 = tested on: NCI-H460
NCI-H522 = tested on: NCI-H522
NCI/ADR-RES = tested on: NCI/ADR-RES
OVCAR-3 = tested on: OVCAR-3
OVCAR-4 = tested on: OVCAR-4
OVCAR-5 = tested on: OVCAR-5
OVCAR-8 = tested on: OVCAR-8
PC-3 = tested on: PC-3
RPMI-8226 = tested on: RPMI-8226
RXF 393 = tested on: RXF 393
SF-268 = tested on: SF-268
SF-295 = tested on: SF-295
SF-539 = tested on: SF-539
SK-MEL-28 = tested on: SK-MEL-28
SK-MEL-2 = tested on: SK-MEL-2
SK-MEL-5 = tested on: SK-MEL-5
SK-OV-3 = tested on: SK-OV-3
SN12C = tested on: SN12C
SNB-19 = tested on: SNB-19
SNB-75 = tested on: SNB-75
SR = tested on: SR
SW-620 = tested on: SW-620
T47D = tested on: T47D
TK-10 = tested on: TK-10
U-251 = tested on: U-251
UACC-257 = tested on: UACC-257
UACC-62 = tested on: UACC-62
UO-31 = tested on: UO-31

Compound: CN(O)C(=O)c1ccc(OCc2cccc(Cl)c2)cc1
- GI50 (786-0): 12.4 µM (inactive)
- GI50 (A498): 25.8 µM (inactive)
- GI50 (A549): 16 µM (inactive)
- GI50 (ACHN): 8.51 µM (inactive)
- GI50 (BT-549): 22.8 µM (inactive)
- GI50 (CAKI-1): 18.5 µM (inactive)
- GI50 (CCRF-CEM): 5.12 µM (inactive)
- GI50 (COLO 205): 23.6 µM (inactive)
- GI50 (DU-145): 27.4 µM (inactive)
- GI50 (EKVX): 30.3 µM (inactive)
- GI50 (HCC 2998): 15.3 µM (inactive)
- GI50 (HCT-116): 8.45 µM (inactive)
- GI50 (HCT-15): 3.52 µM
- GI50 (HL-60): 6.12 µM (inactive)
- GI50 (HOP-62): 16.7 µM (inactive)
- GI50 (HOP-92): 58.5 µM (inactive)
- GI50 (HT-29): 14.6 µM (inactive)
- GI50 (Hs-578T): 71.3 µM (inactive)
- GI50 (IGROV-1): 16.7 µM (inactive)
- GI50 (K562): 22.6 µM (inactive)
- GI50 (KM12): 27.5 µM (inactive)
- GI50 (LOX IMVI): 7.94 µM (inactive)
- GI50 (M14): 16.7 µM (inactive)
- GI50 (MCF7): 32.4 µM (inactive)
- GI50 (MDA-MB-231): > 81.1 µM (inactive)
- GI50 (MDA-MB-435): 23.6 µM (inactive)
- GI50 (MDA-N): 35.8 µM (inactive)
- GI50 (MOLT-4): 9.64 µM (inactive)
- GI50 (NCI-H226): 19.5 µM (inactive)
- GI50 (NCI-H23): 11.4 µM (inactive)
- GI50 (NCI-H460): 9.4 µM (inactive)
- GI50 (NCI-H522): 13.1 µM (inactive)
- GI50 (NCI/ADR-RES): 13.7 µM (inactive)
- GI50 (OVCAR-3): 19.2 µM (inactive)
- GI50 (OVCAR-4): 21.6 µM (inactive)
- GI50 (OVCAR-5): > 62.1 µM (inactive)
- GI50 (OVCAR-8): 19 µM (inactive)
- GI50 (PC-3): 24.5 µM (inactive)
- GI50 (RPMI-8226): 14.8 µM (inactive)
- GI50 (RXF 393): 25.6 µM (inactive)
- GI50 (SF-268): 21.2 µM (inactive)
- GI50 (SF-295): 13.2 µM (inactive)
- GI50 (SF-539): 19 µM (inactive)
- GI50 (SK-MEL-28): 40.7 µM (inactive)
- GI50 (SK-MEL-2): 34.4 µM (inactive)
- GI50 (SK-MEL-5): 27.8 µM (inactive)
- GI50 (SK-OV-3): 24.3 µM (inactive)
- GI50 (SN12C): 18 µM (inactive)
- GI50 (SNB-19): 24.6 µM (inactive)
- GI50 (SNB-75): 47.1 µM (inactive)
- GI50 (SR): 4.91 µM (inactive)
- GI50 (SW-620): 32.8 µM (inactive)
- GI50 (T47D): 43.1 µM (inactive)
- GI50 (TK-10): 57.4 µM (inactive)
- GI50 (U-251): 15.2 µM (inactive)
- GI50 (UACC-257): 38.2 µM (inactive)
- GI50 (UACC-62): 15.4 µM (inactive)
- GI50 (UO-31): 16.9 µM (inactive)

From ChEMBL document CHEMBL1201862, “PubChem BioAssay data set” (2004)
